Experiments:
CYP2C19 = biological target: T1, CYP2C19 (Homo sapiens, UniProt P33261); assay: CYP inhibition assay; assay type: in vitro ADME; conditions: human, human liver microsomes, pH 7.4, probe S-mephenytoin 100 μM (in a cocktail of five substrates); inhibitor 0.1 μM; read-out: Percentage of enzyme remaining after inhibition, CYP2C19
T1 construct: Human liver microsomes (0.25 mg/mL); from tissue; host or cells: human liver microsomes
Description: (§1) Human liver microsomes (0.25 mg/mL), 0.1 M phosphate buffer (pH 7.4), a cocktail of five […] substrates (Phenacetin 50 μM, Diclofenac 10 μM, S-mephenytoin 100 μM, Dextromethorphan 5 μM, Midazolam 2.5 μM), and test compound (10 μM concentration) was pre-incubated for 5 min at 37 °C. NADPH generation system solution was added and incubated for 15 min at 37 °C. In order to terminate the reaction, acetonitrile solution containing an internal standard (Terfenadine) was added and centrifuged for 5 min (14,000× g […], 4 °C). The supernatant was injected into the LC-MS/MS system to analyze the metabolites of the substrates simultaneously. Metabolites of each substrate produced during the reaction were analyzed using the Shimadzu Nexera XR system and TSQ vantage (Thermo). Kinetex C18 column (2.1 × 100 mm, 2.6 μm particle size; Phenomenex, USA) was used for HPLC. The mobile phase used contained 0.1% formic acid in distilled water (A) and 0.1% formic acid containing acetonitrile (B). The generated metabolites were quantified using MRM (Multiple Reaction Monitoring) and Xcalibur (version 1.6.1) was used for data analysis.

CYP1A2 = biological target: T2, CYP1A2 (Homo sapiens, UniProt P05177); assay: CYP inhibition assay; assay type: in vitro ADME; conditions: human, human liver microsomes, pH 7.4, probe Phenacetin 50 μM (in a cocktail of five substrates); inhibitor 0.1 μM; read-out: Percentage of enzyme remaining after inhibition, CYP1A2
T2 construct: Human liver microsomes (0.25 mg/mL); from tissue; host or cells: human liver microsomes
Description: as §1

CYP2C9 = biological target: T3, CYP2C9 (Homo sapiens, UniProt P11712); assay: CYP inhibition assay; assay type: in vitro ADME; conditions: human, human liver microsomes, pH 7.4, probe Diclofenac 10 μM (in a cocktail of five substrates); inhibitor 0.1 μM; read-out: Percentage of enzyme remaining after inhibition, CYP2C9
T3 construct: Human liver microsomes (0.25 mg/mL); from tissue; host or cells: human liver microsomes
Description: as §1

KM12 = assay: Antiproliferative activity against KM12; assay type: cell-based; conditions: Homo sapiens, colon cancer cell line highly expressing NTRK1/2/3 and DYRK3, read-out: IC50 cell growth of KM12
ACHN = assay: Antiproliferative activity against ACHN; assay type: cell-based; conditions: Homo sapiens, renal cancer cell line expressing CK1δ and DYRK2, read-out: IC50 cell growth of ACHN

T3 sequence (P11712 whole entry): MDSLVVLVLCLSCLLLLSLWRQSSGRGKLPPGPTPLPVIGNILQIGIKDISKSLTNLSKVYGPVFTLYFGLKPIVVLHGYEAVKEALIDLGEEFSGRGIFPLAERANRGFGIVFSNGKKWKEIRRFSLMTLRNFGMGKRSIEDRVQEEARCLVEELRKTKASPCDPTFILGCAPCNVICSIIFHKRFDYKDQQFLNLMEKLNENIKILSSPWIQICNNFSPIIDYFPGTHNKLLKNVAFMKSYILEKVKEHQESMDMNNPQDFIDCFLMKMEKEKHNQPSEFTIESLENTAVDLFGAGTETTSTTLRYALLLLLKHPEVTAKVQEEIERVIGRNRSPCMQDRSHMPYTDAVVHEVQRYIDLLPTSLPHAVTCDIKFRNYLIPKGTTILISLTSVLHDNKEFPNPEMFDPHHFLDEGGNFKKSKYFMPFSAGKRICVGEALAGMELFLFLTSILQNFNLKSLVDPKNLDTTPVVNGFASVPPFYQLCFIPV
T2 sequence (P05177 whole entry): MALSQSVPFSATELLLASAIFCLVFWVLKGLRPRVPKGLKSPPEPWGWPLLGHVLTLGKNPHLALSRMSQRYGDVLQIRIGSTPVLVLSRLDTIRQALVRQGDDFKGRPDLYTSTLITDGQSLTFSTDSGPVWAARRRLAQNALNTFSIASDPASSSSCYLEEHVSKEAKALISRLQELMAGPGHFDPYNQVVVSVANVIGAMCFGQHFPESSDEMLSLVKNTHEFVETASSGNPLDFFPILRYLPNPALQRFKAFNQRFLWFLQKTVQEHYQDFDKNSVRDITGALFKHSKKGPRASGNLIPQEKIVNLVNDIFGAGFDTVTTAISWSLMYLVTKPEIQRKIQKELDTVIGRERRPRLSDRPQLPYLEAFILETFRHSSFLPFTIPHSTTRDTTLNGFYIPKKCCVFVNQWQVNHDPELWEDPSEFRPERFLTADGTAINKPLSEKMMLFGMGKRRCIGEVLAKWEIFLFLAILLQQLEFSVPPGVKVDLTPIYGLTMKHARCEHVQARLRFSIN
T1 sequence (P33261 whole entry): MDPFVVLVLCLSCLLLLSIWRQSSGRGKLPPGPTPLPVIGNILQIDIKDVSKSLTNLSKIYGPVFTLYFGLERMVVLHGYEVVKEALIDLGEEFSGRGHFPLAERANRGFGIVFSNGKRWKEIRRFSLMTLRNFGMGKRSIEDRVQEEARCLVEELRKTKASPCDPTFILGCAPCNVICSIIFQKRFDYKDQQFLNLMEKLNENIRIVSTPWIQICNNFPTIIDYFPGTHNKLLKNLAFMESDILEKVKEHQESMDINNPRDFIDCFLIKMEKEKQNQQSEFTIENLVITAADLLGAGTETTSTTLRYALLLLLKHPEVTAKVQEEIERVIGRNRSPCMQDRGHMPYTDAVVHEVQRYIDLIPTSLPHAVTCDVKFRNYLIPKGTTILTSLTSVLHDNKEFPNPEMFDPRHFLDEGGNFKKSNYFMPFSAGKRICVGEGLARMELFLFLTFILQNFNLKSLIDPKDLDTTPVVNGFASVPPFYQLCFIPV

SMILES: CC(=O)N1CCN(c2ccc(OCC3COC(Cn4ccnc4)(c4ccc(Cl)cc4Cl)O3)cc2)CC1 (centres unmarked) [Ketoconazole, reference compound]
- remaining at 15 min, 0.1 μM (CYP2C19): 93.6%
- remaining at 15 min, 0.1 μM (CYP1A2): 95.7%
- remaining at 15 min, 0.1 μM (CYP2C9): 93.6%

SMILES: COc1cccc2c1C(=O)c1c(O)c3c(c(O)c1C2=O)C[C@@](O)(C(=O)CO)C[C@@H]3O[C@H]1C[C@H](N)[C@H](O)[C@H](C)O1 [doxorubicin, reference compound]
- IC50 (KM12): 120 nM
- IC50 (ACHN): 40 nM
